Data on five compounds can be found in publication PMC4122973 (Bioscience Reports, 2014).

Assay [1] addresses T1, human TRPM8 (Homo sapiens, UniProt Q7Z2W7).
T1 construct: expressed in transfected cells
Briefly: Fluo-3 intracellular Ca2+ assay, HEK-293 cells expressing normal human TRPM8. The format is cell-based. The protocol: (§1) When cells reached approximately 80% confluence they were harvested for assays measuring Ca^2+ transients in response to TRP channel activation. […] A sample was taken to calculate cell yield using a hemocytometer and the cells were pelleted by centrifugation at 1500 rpm for 4 min.
(§2) Cell suspension for assay was added to 1.9 ml isotonic assay buffer (no BSA) in a 10×10×45 mm polystyrene cuvette (Sarstedt Ltd) containing a small magnetic flea for continuous stirring (~50 rpm), to bring the final volume to 2 ml, and placed within the photomultipler light box. […] Slit apertures were adjusted to enable maximum sensitivity while maintaining low noise. TRP channel agonist was administered by injection into the cuvette using a 1–20 μl pipette fitted with a narrow, extended-reach disposable tip. Antagonists were pre-added to cuvettes where appropriate. Real-time fluorescence intensity measurements were collected and data were exported to Microsoft Excel for analysis. Experimental treatments were performed in triplicate on three separate occasions to facilitate statistical analyses of reproducibility.
Data from the measurement of Ca^2+ transients (each treatment including a 2 μM A23187 Ca^2+ ionophore control) were used to generate fluorescence intensity traces in Microsoft Excel. RFU (relative fluorescence unit) values for baseline and agonist-induced peak Ca^2+ fluo-3-fluorescence were determined by the manual analysis of graphs. Agonist dose-dependent changes in peak RFU were expressed as ΔRFU relative to baseline and relative to maximum RFU elicited by A23187. […] This enabled estimation of excitatory concentration EC50 for agonists and inhibitory concentration IC50 values where pre-incubation with antagonist was employed. Comparisons between data generated in triplicate within individual experiments and between experiments performed on […] were analysed using Student's t test and one-way ANOVA with post-hoc analysis of group means using Tukey's multiple comparison test.

Assay [2] has as its target T2, TRPM8 SV 762,763 EL (Homo sapiens, UniProt Q7Z2W7, S762E/V763L).
T2 construct: expressed in transfected cells
Briefly: Fluo-3 intracellular Ca2+ assay, HEK-293 cells expressing TRPM8 SV 762,763 EL mutant. Type of assay: cell-based. The conditions noted are these: HEK293 TRPM8 SV / EL; mean±S.E.M., n=3; read-out: EC50 for WS 12 (peak intracellular Ca2+ fluorescence). From the text: (§3) Human TRPM8 cDNA was cloned by RT–PCR from human prostate cancer cell line LNCaP (from the American Type Culture Collection) by ligation into pcDNA3.1neo and its DNA sequence validated (L.R. Sadofsky, unpublished work). Normal TRPM8 cDNA was mutated using synthetic oligonucleotides (from Eurofins, MWG, Operon) to amplify full-length plasmid DNA with Pfu DNA polymerase (Thermo Scientific). Amplified DNA was used to transform competent Esherichia coli (Agilent) and individual plasmid clones were screened by diagnostic restriction enzyme digestion-agarose gel electrophoresis. […]
(§4) Cell suspension for assay was added to 1.9 ml isotonic assay buffer (no BSA) in a 10×10×45 mm polystyrene cuvette (Sarstedt Ltd) containing a small magnetic flea for continuous stirring (~50 rpm), to bring the final volume to 2 ml, and placed within the photomultipler light box. […] Real-time fluorescence intensity measurements were collected and data were exported to Microsoft Excel for analysis. […]
(§5) Data from the measurement of Ca^2+ transients (each treatment including a 2 μM A23187 Ca^2+ ionophore control) were used to generate fluorescence intensity traces in Microsoft Excel. RFU (relative fluorescence unit) values for baseline and agonist-induced peak Ca^2+ fluo-3-fluorescence were determined by the manual analysis of graphs. […]

For assay [3], the target named is T3, TRPM8 FK 1045,1046 AG (Homo sapiens, UniProt Q7Z2W7, F1045A/K1046G).
T3 construct: expressed in transfected cells
T3 sequence (Q7Z2W7 whole entry F1045A/K1046G): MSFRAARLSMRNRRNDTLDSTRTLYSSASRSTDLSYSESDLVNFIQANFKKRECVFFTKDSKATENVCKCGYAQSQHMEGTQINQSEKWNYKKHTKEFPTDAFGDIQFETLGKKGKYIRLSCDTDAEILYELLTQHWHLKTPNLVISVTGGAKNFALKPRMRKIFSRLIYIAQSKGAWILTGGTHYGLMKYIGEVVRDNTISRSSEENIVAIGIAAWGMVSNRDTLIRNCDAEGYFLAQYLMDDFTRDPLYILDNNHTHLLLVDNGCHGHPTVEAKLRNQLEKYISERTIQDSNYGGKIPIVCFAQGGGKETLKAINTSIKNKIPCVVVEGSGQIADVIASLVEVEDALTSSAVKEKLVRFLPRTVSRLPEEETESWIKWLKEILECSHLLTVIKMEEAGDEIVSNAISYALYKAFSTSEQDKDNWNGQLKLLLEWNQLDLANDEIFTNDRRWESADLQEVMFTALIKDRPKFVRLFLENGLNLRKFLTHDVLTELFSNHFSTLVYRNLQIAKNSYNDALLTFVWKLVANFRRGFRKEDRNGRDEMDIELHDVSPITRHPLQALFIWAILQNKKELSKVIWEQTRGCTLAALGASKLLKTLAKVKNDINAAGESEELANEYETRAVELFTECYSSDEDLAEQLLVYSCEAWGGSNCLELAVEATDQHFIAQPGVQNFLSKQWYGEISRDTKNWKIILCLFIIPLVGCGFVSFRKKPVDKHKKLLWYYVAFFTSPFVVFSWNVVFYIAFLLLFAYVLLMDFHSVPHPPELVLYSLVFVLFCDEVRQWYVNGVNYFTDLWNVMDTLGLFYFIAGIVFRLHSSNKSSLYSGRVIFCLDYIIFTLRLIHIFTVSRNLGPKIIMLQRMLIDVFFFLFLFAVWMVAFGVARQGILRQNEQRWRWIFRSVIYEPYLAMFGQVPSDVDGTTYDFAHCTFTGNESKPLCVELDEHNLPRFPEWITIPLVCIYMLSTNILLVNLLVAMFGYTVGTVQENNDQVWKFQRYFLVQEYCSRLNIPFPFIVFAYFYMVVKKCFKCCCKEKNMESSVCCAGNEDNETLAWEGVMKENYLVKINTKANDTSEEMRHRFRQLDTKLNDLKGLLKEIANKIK
The assay is described as follows: Fluo-3 intracellular Ca2+ assay, HEK-293 cells expressing TRPM8 FK 1045,1046 AG mutant. The format is cell-based. The conditions noted are these: HEK293 TRPM8 FK / AG; mean±S.E.M., n=3; read-out: EC50 for WS 12 (peak intracellular Ca2+ fluorescence).
Description: as §3, §4, §5

The target of assay [4] is T3, TRPM8 FK 1045,1046 AG. Briefly: Fluo-3 intracellular Ca2+ assay, SH-SY5Y cells expressing TRPM8 FK 1045,1046 AG mutant. Type of assay: cell-based.
Description: as §3, §4, §5

Assay [5] deals with HEK-293 cells transfected with empty pcDNA3.1neo vector. Briefly: Fluo-3 intracellular Ca2+ assay, control HEK-293 cells with empty pcDNA3.1neo vector. Type of assay: cell-based, human. The settings on record: HEK-293 empty pcDNA3.1neo vector; 40 nM WS 12 (Figure S1a). The protocol: Following a brief wash with PBS, cells were detached from each T75 flask by soaking with 2 ml Hepes-buffered saline EDTA (10 mM Hepes pH7.4, 155 mM NaCl, 1.7 mM EDTA) for several minutes and were harvested by addition of 10 ml PBS with gentle agitation and transfer to a 25 ml universal. A sample was taken to calculate cell yield using a hemocytometer and the cells were pelleted by centrifugation at 1500 rpm for 4 min. The pellet was resuspended in isotonic buffer (145 mM NaCl, 5 mM KCl, 1 mM MgCl2, 1 mM CaCl2, 10 mM Hepes pH7.4, 10 mM glucose, a variable content of probenecid (0, 0.13, 0.26, 0.52, 1.0, 2.0 or 2.5 mM) or 0.18 mM sulfinpyrazone, with optional 10 mg/ml BSA (all from Sigma-Aldrich) at a density of 5×10^6/ml and mixed with 2.5 or 5.0 μl Fluo-3AM (Invitrogen) from a 2.5 μg/μl stock solution prepared in (DMSO, Sigma-Aldrich). Cells were incubated in a 25 ml universal in the dark at room temperature with gentle rotary mixing (50 rpm) for 30–45 min and then washed by addition of 18 ml PBS followed by centrifugation and resuspension in isotonic buffer without BSA at 5×10^6 cells/ml. […] Real-time fluorescence intensity measurements were collected and data were exported to Microsoft Excel for analysis. […]

For assay [6], the target named is T4, SH-SY5Y TRPA1 R797T (Homo sapiens, UniProt O75762, R797T).
T4 construct: expressed in transfected cells
T4 sequence (O75762 whole entry R797T): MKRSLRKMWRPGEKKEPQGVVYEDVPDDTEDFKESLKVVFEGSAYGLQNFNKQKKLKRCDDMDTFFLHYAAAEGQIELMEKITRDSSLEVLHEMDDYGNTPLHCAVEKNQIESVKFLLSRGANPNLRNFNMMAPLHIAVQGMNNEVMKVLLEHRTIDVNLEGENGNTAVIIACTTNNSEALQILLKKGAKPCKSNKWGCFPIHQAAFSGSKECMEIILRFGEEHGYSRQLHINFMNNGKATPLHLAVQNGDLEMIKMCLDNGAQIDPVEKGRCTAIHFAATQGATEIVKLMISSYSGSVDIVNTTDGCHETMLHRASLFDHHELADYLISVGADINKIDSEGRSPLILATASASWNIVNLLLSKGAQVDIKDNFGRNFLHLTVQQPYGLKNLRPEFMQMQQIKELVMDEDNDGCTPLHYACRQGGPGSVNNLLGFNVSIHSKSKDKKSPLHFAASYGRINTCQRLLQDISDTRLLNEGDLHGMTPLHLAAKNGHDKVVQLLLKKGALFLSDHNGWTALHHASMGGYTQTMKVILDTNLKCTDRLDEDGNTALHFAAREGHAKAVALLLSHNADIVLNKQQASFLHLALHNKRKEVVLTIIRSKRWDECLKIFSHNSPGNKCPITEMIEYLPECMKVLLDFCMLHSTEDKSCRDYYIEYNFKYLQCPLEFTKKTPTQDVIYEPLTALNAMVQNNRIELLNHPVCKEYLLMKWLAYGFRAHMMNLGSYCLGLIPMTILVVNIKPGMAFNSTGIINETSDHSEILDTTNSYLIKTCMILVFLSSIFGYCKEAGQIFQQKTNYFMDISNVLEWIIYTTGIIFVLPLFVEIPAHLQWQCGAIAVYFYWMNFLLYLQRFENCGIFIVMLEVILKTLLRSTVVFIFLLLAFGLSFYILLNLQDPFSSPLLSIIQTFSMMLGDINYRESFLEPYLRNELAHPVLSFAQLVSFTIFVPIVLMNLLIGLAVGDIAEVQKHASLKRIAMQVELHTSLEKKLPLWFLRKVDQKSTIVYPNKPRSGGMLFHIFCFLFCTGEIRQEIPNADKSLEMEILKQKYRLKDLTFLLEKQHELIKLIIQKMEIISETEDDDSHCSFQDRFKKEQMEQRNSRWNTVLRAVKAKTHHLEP
Briefly: Fluo-3 intracellular Ca2+ assay, TRPA1-transfected SH-SY5Y cells that lost response to agonist. Type of assay: cell-based. The conditions noted are these: pre-treatment followed by AITC. The method, then: as §1
as §2, with “Antagonists were pre-added to cuvettes where appropriate.” left out, “Experimental treatments were performed in triplicate on three separate occasions to facilitate statistical analyses of reproducibility.” left out
Data from the measurement of Ca^2+ transients (each treatment including a 2 μM A23187 Ca^2+ ionophore control) were used to generate fluorescence intensity traces in Microsoft Excel. RFU (relative fluorescence unit) values for baseline and agonist-induced peak Ca^2+ fluo-3-fluorescence were determined by the manual analysis of graphs. Agonist dose-dependent changes in peak RFU were expressed as ΔRFU relative to baseline and relative to maximum RFU elicited by A23187. […]

The target of assay [7] is T5, TRPA1 797R (Homo sapiens, UniProt O75762).
T5 construct: expressed in transfected cells
T5 sequence (O75762 whole entry): as the sequence (O75762 whole entry R797T) above, with T797R counted along it
Briefly: Fluo-3 intracellular Ca2+ assay, HEK-293 cells expressing TRPA1 797R (reference sequence). The format is cell-based.
Description: When cells reached approximately 80% confluence they were harvested for assays measuring Ca^2+ transients in response to TRP channel activation. Following a brief wash with PBS, cells were detached from each T75 flask by soaking with 2 ml Hepes-buffered saline EDTA (10 mM Hepes pH7.4, 155 mM NaCl, 1.7 mM EDTA) for several minutes and were harvested by addition of 10 ml PBS with gentle agitation and transfer to a 25 ml universal. A sample was taken to calculate cell yield using a hemocytometer and the cells were pelleted by centrifugation at 1500 rpm for 4 min. […]

Assay [8] deals with T6, TRPA1 804N (Homo sapiens, UniProt O75762, S804N).
T6 construct: expressed in transfected cells
T6 sequence (O75762 whole entry S804N): as the sequence (O75762 whole entry R797T) above, with T797R, S804N counted along it
The assay is described as follows: Fluo-3 intracellular Ca2+ assay, HEK-293 cells expressing TRPA1 804N SNP variant. The format is cell-based. The conditions noted are these: HEK-293 TRPA1 804N; mean ±standard deviation, n=4; read-out: EC50 cinnamaldehyde. The source says: (§6) Human TRPA1 cDNA in pcDNA3.1neo [41] was mutated to create SNP variants using quick change PCR with appropriate primer pairs: R797T forward 5′ […] TT and reverse 5′ […], S804N forward 5′ […] ATGTTC and reverse 5′ […]. Likewise, the experimental mutant S873E, in ICL-2 (intracellular loop-2), was created using PCR primers: forward 5′ […] […] and reverse 5′ […]. For C-terminal extension, TRPA1cDNA was modified by excision of the 3′ section of the coding region (BamHI–XbaI digestion) and replacement with a BamHI–XbaI digested PCR amplified section containing codons for ten histidine residues (His)10 prior to the translation stop codon using T4 DNA ligase (Promega). PCR primers were: sense 5′ TTTAC […] CATT 3′ and antisense 5′ […] […] TGCCTT 3′. […]
(§7) Aliquots of cell suspension (usually 100 μl) were used for measurement of intracellular Ca^2+ transients using a PTI (Photon Technology International) 814 photomultiplier detection system interfaced with a desktop computer (PTI Inc.). […] The cuvette was illuminated using light at a wavelength of 506 nm (slit width 8 nm) and monitored using fluorescence detection at 526 nm (slit width 8 nm) coupled to FeliX GX software (PTI Inc). […] Real-time fluorescence intensity measurements were collected and data were exported to Microsoft Excel for analysis. […]

The target of assay [9] is T7, TRPA1 797T (Homo sapiens, UniProt O75762, R797T).
T7 construct: expressed in transfected cells
T7 sequence (O75762 whole entry R797T): as the sequence (O75762 whole entry R797T) above
Briefly: Fluo-3 intracellular Ca2+ assay, HEK-293 cells expressing TRPA1 797T SNP variant. The format is cell-based. The settings on record: HEK-293 TRPA1 797T; mean ±standard deviation, n=4; read-out: EC50 cinnamaldehyde.
Description: as §6, §7

Assay [10] addresses T8, TRPA1-(His)10 (Homo sapiens, UniProt O75762).
T8 construct: expressed in transfected cells
Briefly: Fluo-3 intracellular Ca2+ assay, HEK-293 cells expressing TRPA1-(His)10. The format is cell-based. The conditions noted are these: HEK-293 TRPA1-(His)10; mean ±standard deviation, n=4; read-out: EC50 cinnamaldehyde.
Description: as §6, §7

Molecules are shown by their SMILES. “Also recorded” adds a separate entry of the source.

T1 sequence (Q7Z2W7 whole entry): as the sequence (Q7Z2W7 whole entry F1045A/K1046G) above, with A1045F, G1046K counted along it
T2 sequence (Q7Z2W7 whole entry S762E/V763L): as the sequence (Q7Z2W7 whole entry F1045A/K1046G) above, with S762E, V763L, A1045F, G1046K counted along it
T8 sequence (O75762 with tags, fused parts or gaps limits assumed): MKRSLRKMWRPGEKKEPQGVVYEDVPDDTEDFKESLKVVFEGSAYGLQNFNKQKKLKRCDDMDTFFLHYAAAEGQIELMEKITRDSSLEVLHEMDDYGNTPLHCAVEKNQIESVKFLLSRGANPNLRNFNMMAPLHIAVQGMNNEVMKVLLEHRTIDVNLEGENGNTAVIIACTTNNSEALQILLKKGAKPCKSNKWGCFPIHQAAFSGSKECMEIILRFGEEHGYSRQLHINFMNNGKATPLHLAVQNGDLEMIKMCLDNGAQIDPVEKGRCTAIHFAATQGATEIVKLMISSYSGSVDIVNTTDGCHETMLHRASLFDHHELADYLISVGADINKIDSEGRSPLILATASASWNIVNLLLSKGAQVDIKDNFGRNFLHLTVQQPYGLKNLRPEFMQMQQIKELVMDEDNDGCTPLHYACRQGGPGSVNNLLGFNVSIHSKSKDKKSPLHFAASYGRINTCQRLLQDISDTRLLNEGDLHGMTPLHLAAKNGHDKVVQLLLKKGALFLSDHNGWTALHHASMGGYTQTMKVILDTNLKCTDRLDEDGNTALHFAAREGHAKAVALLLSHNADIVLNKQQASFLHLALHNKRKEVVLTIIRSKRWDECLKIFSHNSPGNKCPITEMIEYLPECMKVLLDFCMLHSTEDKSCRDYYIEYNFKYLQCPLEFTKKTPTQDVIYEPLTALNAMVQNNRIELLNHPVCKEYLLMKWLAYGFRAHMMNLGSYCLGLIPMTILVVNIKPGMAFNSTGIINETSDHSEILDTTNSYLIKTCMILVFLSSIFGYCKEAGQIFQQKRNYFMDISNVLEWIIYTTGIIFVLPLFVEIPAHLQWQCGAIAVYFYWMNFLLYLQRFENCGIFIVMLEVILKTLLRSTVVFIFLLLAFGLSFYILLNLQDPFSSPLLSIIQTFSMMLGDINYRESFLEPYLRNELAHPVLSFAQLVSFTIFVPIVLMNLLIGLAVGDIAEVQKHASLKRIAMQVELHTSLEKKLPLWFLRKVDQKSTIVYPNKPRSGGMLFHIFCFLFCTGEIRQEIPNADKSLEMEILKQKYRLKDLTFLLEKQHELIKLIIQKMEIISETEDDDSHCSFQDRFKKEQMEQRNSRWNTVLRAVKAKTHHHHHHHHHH

The term EC50 denotes the concentration at which the effect is half-maximal. As to `COc1ccc(NC(=O)[C@@H]2CC(C)CC[C@H]2C(C)C)cc1` (stereo partly drawn) [WS 12, (1R,2S)-N-(4-methoxyphenyl)-5-methyl-2-(1-methylethyl)cyclohexanecarbo-xamide], the EC50 came to 0.128 ± 0.022 µM in [1] (HEK293 TRPM8, mean±S.E.M., n=3, read-out: EC50 for WS 12 (peak intracellular Ca2+ fluorescence)); 0.178 ± 0.022 µM in assay [2]; 0.194 ± 0.05 µM in assay [3]; 0.187 ± 0.037 µM in assay [4] (mean±S.E.M., n=3, read-out: EC50 for WS 12 (peak intracellular Ca2+ fluorescence)). Moreover, the “Intracellular Ca2+ transients in empty-vector control cells” value in assay [5] is recorded as “did not exhibit intracellular Ca^2+ transients”.
For the compound `Nc1ncnc2c1cnn2-c1ccccc1` [PP3, 4-amino-7-phenylpyrazol[3,4-d]pyrimidine], the “Effect of pre-treatment on responses to TRPM8 agonist” value in [4] (150 nM WS 12) is on record as “did not affect responses; also recorded: did not inhibit responses”. For the same compound, the “Recovery of responses to TRPA1 agonists after pre-treatment” value in assay [6] is reported as “did not facilitate recovery”.
Regarding `CC1CCC(C(C)C)C(O)C1` (stereo not drawn) [menthol], the “Intracellular Ca2+ transients in empty-vector control cells” value in assay [5] is listed as “did not exhibit intracellular Ca^2+ transients”.
For `CCCN(CCC)S(=O)(=O)c1ccc(C(=O)O)cc1` [probenecid], the “Effect of low probenecid concentration on Ca2+ assay results” value in [1] (0.13 mM probenecid, relative to data derived using sulfinpyrazone, TRPM8 and TRPA1 assays) was “did not affect”. In assay [1] (probenecid above 1 mM, up to 2.5 mM, 40 nM WS 12), the “Effect of probenecid on TRPM8-induced intracellular Ca2+ response” value is “inhibited; also recorded: suppressed the response to WS 12”. Besides, the “Effect of probenecid on TRPA1-induced intracellular Ca2+ response” value in assay [7] (probenecid above 1 mM, up to 2.5 mM, 60 μM cinnamaldehyde) is “suppressed; also recorded: inhibited”.
Turning to `O=C/C=C/c1ccccc1` [cinnamaldehyde], the 50% effective concentration (EC50) in assay [7] is 15 ± 5 µM; in assay [8], 11 ± 3 µM; in assay [9], 3 ± 1 µM; in assay [10] it was 8 ± 2 µM.
